According to patent US20170052170A1, “NOVEL CELL LINES AND METHODS” (priority 2009, published 2017):
Where two headings read alike, the source gives them in different places. Peptide text beside a SMILES is read from it.

Legend:
[1] = target: T1, sweet taste receptor (human T1R2 and T1R3 subunits, mouse Gα15) (Homo sapiens, UniProt Q7RTX0+Q8TE23, C757R/I191V/I486V/R317G); test: sweet taste receptor-expressing cell-based assay (calcium flux); settings: natural, high intensity and artificial sweeteners; FIGS. 23 and 24
T1 construct: expressed in transfected cells; host or cells: HEK293T (ATCC CRL-11268)
T1 sequence (Q8TE23 20-839 I191V/R317G/I486V): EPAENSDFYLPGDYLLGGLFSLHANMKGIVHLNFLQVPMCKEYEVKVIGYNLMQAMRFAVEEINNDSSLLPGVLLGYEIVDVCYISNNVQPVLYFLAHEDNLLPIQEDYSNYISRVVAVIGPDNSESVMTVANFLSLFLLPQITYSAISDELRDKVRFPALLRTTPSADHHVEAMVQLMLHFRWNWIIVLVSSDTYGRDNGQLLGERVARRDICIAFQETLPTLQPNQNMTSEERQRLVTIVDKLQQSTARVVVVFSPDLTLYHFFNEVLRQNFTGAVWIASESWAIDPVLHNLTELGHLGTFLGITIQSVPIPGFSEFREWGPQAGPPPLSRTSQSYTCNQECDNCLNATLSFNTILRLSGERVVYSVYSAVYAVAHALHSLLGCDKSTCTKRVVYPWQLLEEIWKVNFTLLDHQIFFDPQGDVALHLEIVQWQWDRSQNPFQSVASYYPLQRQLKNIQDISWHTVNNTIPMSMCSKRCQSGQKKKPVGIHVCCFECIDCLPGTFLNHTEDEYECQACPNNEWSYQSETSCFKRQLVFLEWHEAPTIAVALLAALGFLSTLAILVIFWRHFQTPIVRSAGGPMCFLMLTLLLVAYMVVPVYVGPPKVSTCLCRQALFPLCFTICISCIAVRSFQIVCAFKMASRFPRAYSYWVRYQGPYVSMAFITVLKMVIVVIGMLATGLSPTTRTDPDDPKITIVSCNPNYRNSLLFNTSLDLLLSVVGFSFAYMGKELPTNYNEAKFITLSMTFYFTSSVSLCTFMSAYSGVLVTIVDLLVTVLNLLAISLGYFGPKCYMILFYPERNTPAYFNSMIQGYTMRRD
T1 sequence (Q7RTX0 21-852 C757R): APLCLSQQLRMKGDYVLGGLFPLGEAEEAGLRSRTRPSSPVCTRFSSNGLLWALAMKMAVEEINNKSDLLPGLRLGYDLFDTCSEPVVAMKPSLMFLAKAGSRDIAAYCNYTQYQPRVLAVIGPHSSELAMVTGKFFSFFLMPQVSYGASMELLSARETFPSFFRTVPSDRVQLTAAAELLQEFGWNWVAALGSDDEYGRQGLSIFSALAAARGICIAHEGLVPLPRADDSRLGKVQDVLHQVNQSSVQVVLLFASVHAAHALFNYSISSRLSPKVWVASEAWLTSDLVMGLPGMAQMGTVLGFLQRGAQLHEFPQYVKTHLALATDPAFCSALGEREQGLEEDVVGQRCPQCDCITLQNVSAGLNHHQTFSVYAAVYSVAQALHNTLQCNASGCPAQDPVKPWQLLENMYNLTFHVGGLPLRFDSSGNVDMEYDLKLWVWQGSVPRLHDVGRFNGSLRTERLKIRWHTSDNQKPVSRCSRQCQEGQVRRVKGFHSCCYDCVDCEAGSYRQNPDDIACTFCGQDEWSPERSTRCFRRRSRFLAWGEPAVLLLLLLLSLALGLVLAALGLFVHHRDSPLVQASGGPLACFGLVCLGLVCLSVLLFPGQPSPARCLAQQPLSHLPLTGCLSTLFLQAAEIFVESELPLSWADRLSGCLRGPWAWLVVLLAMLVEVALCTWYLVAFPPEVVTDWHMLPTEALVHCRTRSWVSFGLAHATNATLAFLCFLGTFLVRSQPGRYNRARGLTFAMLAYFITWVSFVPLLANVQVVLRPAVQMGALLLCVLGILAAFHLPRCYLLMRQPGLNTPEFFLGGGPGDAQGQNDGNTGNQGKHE
Source text: FIG. 24 (A-C) is series of line graphs representing the data obtained in various dose response experiments using sweet taste receptor agonists in a sweet taste receptor-expressing cell-based assay (using cells of this invention). (A) The responses of a sweet taste receptor-expressing cell line to natural caloric sweeteners were plotted as a function of the agonist concentration. (B) Dose response curves of common artificial sweeteners in a sweet taste receptor-expressing cell-based assay. (C) Dose response curves of natural high-intensity sweeteners in a sweet taste receptor-expressing cell-based assay.
FIG. 25 is a series of representative response traces generated after performing a sweet taste receptor-expressing cell-based assay using cells of this invention.
To identify a taste receptor modulator (e.g., umami taste receptor modulator or sweet taste receptor modulator), one exposes a cell or cell line of the invention to a test compound under conditions in which the taste receptor (e.g., umami taste receptor or sweet taste receptor) would be expected to be functional and then detects a statistically significant change (e.g., p<0.05) in taste receptor activity (e.g., umami taste receptor activity or sweet taste receptor activity) compared to a suitable control, e.g., cells that are not exposed to the test compound. Positive and/or negative controls using known agonists or antagonists and/or cells expressing different combinations of taste receptor subunits (e.g., umami taste receptor subunits or sweet taste receptor subunits) (and optionally a G protein) may also be used. In some embodiments, the taste receptor activity (e.g., umami taste receptor activity or sweet taste receptor activity) to be detected and/or measured is calcium release from the endoplasmic reticulum as a result of the down stream signaling events following taste receptor activation (e.g., umami taste receptor activation or sweet taste receptor activation). One of ordinary skill in the art would understand that various assay parameters may be optimized, e.g., signal to noise ratio.
See, e.g., FIGS. 23 and 24.

GABAA α5β3γ2s (α5) = target: T2, GABAA α5β3γ2s (α5) (Homo sapiens, UniProt P18507+P28472+P31644); format: cell-based
T2 construct: expressed in transfected cells; host or cells: CHO
Protocol: (§1) Cells were plated 24 hours prior to assay at 10-25,000 cells per well in 384 well plates in growth media (Ham's F-12 media plus FBS and glutamine). […] Incubation was for 1 hour, followed by plate loading onto the high throughput fluorescent plate reader (Hamamastu FDSS). […] The plates were read for 90 seconds.
(§2) Interaction of cell lines with test compounds was evaluated by measuring the membrane potential of GABAA, in response to test compounds using the following protocol.

GABAA α3β3γ2s (α3) = target: T3, GABAA α3β3γ2s (α3) (Homo sapiens, UniProt P18507+P28472+P34903); format: cell-based; settings: CHO cells, membrane potential dye
T3 construct: expressed in transfected cells; host or cells: CHO
Protocol: as §1, §2

GABAA α2β3γ2s (α2) = target: T4, GABAA α2β3γ2s (α2) (Homo sapiens, UniProt P18507+P28472+P47869, A343T); format: cell-based
T4 construct: expressed in transfected cells; host or cells: CHO
Protocol: as §1, §2

GABAA α1β3γ2s (α1) = target: T5, GABAA α1β3γ2s (α1) (Homo sapiens, UniProt P14867+P18507+P28472); format: cell-based; settings: CHO cells, membrane potential dye
T5 construct: expressed in transfected cells; host or cells: CHO
Protocol: as §1, §2

[2] = target: T6, sweet taste receptor (T1R2/T1R3) (Homo sapiens, UniProt Q7RTX0+Q8TE23, C757R/I191V/I486V/R317G); test: Sweet cell-based calcium flux assay, HEK293T cells expressing T1R2, T1R3 and mouse Gα15; settings: FIG. 24, one assay; read-out: EC50 values (calcium flux)
T6 construct: expressed in transfected cells; host or cells: HEK293T (ATCC CRL-11268)
T6 sequence (Q8TE23 20-839 I191V/R317G/I486V): T1 sequence (Q8TE23 20-839 I191V/R317G/I486V)
T6 sequence (Q7RTX0 21-852 C757R): T1 sequence (Q7RTX0 21-852 C757R)
Source text: Plates are then loaded on a high throughput plate reader (Hamamatsu FDSS). […] Calcium flux is detected for 90 seconds.

[3] = test system: GABAA (α1β3γ2s, α2β3γ2s, α3β3γ2s, α5β3γ2s); test: In-cell readout assay using halide-sensitive meYFP, GABAA-meYFP-CHO cells; format: cell-based, human; settings: increasing concentrations of GABA ligand
Protocol: The response of GABAA (subunit combinations of α1β3γ2s (A1), α2β3γ2s (A2), α3β3γ2s (A3) and α5β3γ2s (A5)) expressing CHO cells of the invention to test compounds was evaluated using the following protocol for an in-cell readout assay.
Cells were plated 24 hours prior to assay at 10-25,000 cells per well in 384 well plates in growth media (Ham's F-12 media plus FBS and glutamine). […] The assay plates were then loaded on the FDSS (Hamamatsu Corporation). […] The plates were read for 90 seconds.

human GC-C (human) = human GC-C (human) (UniProt P25092); test: cell-based or functional assay
[4] = CHO cells, membrane potential dye

T5 sequence (P14867 28-456): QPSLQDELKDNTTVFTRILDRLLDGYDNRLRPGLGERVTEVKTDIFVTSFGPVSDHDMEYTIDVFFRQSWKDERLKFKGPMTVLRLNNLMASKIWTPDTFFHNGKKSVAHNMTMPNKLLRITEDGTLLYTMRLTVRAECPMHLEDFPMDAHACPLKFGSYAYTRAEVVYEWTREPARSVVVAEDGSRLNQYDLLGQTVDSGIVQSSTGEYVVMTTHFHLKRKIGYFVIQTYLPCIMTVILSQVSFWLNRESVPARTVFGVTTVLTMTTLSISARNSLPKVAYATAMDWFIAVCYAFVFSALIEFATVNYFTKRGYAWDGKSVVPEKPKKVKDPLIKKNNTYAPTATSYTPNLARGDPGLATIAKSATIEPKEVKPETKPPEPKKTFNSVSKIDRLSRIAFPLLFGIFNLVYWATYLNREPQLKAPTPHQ
T5 sequence (P28472 26-473): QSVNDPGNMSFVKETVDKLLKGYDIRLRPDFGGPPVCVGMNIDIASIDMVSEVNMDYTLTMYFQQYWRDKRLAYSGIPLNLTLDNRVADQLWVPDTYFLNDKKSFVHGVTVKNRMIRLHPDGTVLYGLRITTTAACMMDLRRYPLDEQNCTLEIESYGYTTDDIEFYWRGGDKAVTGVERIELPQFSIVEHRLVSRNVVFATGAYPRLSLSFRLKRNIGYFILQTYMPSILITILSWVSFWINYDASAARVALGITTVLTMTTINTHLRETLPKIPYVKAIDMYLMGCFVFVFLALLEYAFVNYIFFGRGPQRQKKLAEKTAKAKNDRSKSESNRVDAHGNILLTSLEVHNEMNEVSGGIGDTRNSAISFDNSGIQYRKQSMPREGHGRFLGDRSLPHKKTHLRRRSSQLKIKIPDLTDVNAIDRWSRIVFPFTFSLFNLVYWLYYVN
T5 sequence (P18507 40-467 isoform P18507-1 limits assumed): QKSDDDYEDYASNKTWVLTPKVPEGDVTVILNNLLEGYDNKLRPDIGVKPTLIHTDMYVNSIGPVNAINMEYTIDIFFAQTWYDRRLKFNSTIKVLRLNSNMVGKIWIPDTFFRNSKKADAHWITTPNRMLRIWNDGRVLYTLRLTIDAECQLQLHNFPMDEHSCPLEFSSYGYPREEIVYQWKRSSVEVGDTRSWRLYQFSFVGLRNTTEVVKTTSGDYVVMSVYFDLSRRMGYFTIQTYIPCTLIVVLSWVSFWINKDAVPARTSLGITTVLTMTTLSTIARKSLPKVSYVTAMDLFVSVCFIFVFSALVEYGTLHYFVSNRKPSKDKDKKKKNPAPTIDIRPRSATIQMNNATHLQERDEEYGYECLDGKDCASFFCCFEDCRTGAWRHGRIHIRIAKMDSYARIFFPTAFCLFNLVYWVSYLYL
T4 sequence (P47869 29-451 A343T): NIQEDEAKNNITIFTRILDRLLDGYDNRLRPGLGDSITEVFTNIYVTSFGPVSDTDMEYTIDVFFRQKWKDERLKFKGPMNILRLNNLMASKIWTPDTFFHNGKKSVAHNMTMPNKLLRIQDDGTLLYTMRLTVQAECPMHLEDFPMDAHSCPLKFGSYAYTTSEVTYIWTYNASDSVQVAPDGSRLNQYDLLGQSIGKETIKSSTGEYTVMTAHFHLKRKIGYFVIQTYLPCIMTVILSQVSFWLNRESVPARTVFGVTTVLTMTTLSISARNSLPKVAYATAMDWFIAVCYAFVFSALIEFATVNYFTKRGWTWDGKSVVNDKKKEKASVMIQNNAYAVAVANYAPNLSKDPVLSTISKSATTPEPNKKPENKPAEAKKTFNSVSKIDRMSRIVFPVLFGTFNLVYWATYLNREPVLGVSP
T4 sequence (P28472 26-473, stated change not applied): as the sequence (P28472 26-473) above
T4 sequence (P18507 40-467 isoform P18507-1 limits assumed, stated change not applied): as the sequence (P18507 40-467 isoform P18507-1 limits assumed) above
T2 sequence (P31644 32-462): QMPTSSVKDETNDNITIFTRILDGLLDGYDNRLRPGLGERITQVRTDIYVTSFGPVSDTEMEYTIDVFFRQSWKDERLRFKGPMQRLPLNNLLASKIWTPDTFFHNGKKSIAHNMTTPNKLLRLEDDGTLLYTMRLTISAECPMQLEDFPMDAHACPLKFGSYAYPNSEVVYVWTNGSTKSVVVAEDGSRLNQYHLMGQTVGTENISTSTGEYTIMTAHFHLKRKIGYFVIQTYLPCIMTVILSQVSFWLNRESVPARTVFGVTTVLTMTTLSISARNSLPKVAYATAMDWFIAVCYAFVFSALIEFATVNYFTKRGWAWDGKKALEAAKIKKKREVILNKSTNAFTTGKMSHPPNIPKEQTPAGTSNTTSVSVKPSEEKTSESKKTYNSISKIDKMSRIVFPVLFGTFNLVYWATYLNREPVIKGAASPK
T2 sequence (P28472 26-473): as the sequence (P28472 26-473) above
T2 sequence (P18507 40-467 isoform P18507-1 limits assumed): as the sequence (P18507 40-467 isoform P18507-1 limits assumed) above
T3 sequence (P34903 29-492): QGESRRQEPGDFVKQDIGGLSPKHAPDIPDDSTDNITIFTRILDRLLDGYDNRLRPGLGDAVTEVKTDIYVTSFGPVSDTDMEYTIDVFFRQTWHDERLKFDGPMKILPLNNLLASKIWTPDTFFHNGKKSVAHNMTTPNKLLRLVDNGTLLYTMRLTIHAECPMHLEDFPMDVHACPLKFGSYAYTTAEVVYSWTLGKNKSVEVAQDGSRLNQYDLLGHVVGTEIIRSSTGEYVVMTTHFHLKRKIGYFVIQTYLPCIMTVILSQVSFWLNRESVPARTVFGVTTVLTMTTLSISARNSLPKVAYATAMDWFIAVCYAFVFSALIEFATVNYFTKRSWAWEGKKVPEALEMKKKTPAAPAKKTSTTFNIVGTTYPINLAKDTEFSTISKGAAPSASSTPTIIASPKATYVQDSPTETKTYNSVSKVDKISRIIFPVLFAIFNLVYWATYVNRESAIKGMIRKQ
T3 sequence (P28472 26-473): as the sequence (P28472 26-473) above
T3 sequence (P18507 40-467 isoform P18507-1 limits assumed): as the sequence (P18507 40-467 isoform P18507-1 limits assumed) above
Chain of human GC-C (human) (P25092 24-1073): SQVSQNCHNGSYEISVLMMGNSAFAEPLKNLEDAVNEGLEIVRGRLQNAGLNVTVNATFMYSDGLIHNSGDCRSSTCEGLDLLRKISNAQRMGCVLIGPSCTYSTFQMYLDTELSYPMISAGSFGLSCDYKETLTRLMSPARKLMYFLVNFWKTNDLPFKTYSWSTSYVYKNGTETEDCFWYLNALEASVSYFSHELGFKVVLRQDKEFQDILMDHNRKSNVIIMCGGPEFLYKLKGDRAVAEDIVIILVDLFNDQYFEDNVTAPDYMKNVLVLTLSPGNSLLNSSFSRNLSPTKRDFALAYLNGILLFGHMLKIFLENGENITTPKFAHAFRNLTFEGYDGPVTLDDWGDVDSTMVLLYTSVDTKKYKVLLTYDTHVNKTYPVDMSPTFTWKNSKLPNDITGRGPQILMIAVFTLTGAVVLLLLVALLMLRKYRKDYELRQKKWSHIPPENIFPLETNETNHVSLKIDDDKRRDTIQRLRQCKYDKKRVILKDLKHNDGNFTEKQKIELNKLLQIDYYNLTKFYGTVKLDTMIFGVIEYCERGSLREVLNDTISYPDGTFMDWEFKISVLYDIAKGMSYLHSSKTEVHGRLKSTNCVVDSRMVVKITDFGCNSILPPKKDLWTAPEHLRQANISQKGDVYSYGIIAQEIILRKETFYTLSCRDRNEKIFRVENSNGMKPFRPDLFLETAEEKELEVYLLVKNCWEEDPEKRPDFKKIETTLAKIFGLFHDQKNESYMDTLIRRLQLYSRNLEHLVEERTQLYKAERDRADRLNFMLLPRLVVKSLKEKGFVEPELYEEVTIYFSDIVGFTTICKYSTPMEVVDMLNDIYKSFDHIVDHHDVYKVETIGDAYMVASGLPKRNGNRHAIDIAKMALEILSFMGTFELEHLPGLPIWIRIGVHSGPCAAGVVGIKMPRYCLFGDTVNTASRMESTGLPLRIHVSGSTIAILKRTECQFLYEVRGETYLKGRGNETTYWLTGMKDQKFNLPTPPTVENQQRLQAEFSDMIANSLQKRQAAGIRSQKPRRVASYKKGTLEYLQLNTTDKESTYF

Compound | response of sweet taste receptor cells and cell lines to known classes of sweet compounds [1] | EC50 (GABAA α3β3γ2s (α3)) | EC50 (GABAA α1β3γ2s (α1)) | EC50 (GABAA α2β3γ2s (α2); [4]) | also measured
COC(=O)[C@H](Cc1ccccc1)NC(=O)[C@@H](N)CC(=O)O [asparatame] (H-Asp-Phe-OMe) | respond |  |  |  | 
C=C1C[C@@]23CC[C@H]4[C@@](C)(CCC[C@@]4(C)C(=O)O[C@@H]4O[C@H](CO)[C@@H](O)[C@H](O)[C@H]4O)[C@@H]2CC[C@]1(O[C@@H]1O[C@H](CO)[C@@H](O)[C@H](O[C@@H]2O[C@H](CO)[C@@H](O)[C@H](O)[C@H]2O)[C@H]1O[C@@H]1O[C@H](CO)[C@@H](O)[C@H](O)[C@H]1O)C3 [rebaudioside A] | respond |  |  |  | 
CC(=O)C1CCC2C3CCC4CC(O)CCC4(C)C3CCC12C (stereo not drawn) [5-alpha-Pregnan-3alpha-ol-20-one] |  | 0.08 µM | 0.692 µM |  | EC50 (GABAA α5β3γ2s (α5)): 0.0336 µM; EC50 (GABAA α2β3γ2s (α2)): 0.14 µM
OC[C@H]1O[C@@](CO)(O[C@H]2O[C@H](CO)[C@@H](O)[C@H](O)[C@H]2O)[C@@H](O)[C@@H]1O [sucrose] | respond |  |  |  | EC50 [2]: < 3500 µM
Ivermectin |  | 0.798 µM | 4.26 µM | 0.767 µM | EC50 (GABAA α5β3γ2s (α5); [4]): 0.687 µM
NCCCC(=O)O [GABA] |  |  |  |  | quench of meYFP signal [3]: increasing quench of meYFP signal
CC1=CC(=O)NS(=O)(=O)O1 [acesulfamek] | respond |  |  |  | 
COc1cc(/C=C(\C#N)C(=O)c2ccc(O)c(O)c2)cc(I)c1O [I—OMe Tyrphostin 538] |  | 2.2 µM | 3.5 µM | 1.5 µM | EC50 Values α5 (result in words) (GABAA α5β3γ2s (α5); [4]): Not active
CC12CCC(O)CC1CCC1C2CCC2(C)C(C(=O)CO)CCC12 (stereo not drawn) [3-alpha, 21-dihydroxy-5-alpha-pregnan-20-one] |  | 0.0802 µM | 0.382 µM | 0.123 µM | EC50 (GABAA α5β3γ2s (α5); [4]): 0.0173 µM
mogroside | respond |  |  |  | 
CC(C)(C)c1cc(C=C(C#N)C#N)cc(C(C)(C)C)c1O [Tyrphostin A9] |  | 5 µM | 1.8 µM | 0.88 µM | EC50 (GABAA α5β3γ2s (α5); [4]): 54 µM
guanylin (peptide) |  |  |  |  | EC50 of guanylin dose-response (absorbance as a function of changes in cGMP levels) (human GC-C (human)): 0.0011 µM; level of cGMP (human GC-C (human)): 6 pmol/mL
O=C1NS(=O)(=O)c2ccccc21 [saccharin] | respond |  |  |  | 
